Source: US11951167B2, “Targeted liposomes” (GEORGETOWN UNIVERSITY, priority 2012, dated 2024)
pIC50: −log10 of the molar value.

Key:
[1] = system: intracranial U87MG-luc2 glioblastoma tumor xenografts; test: Efficacy in intracranial GBM xenografts (MRI, BLI, body weight, survival)
Method: Intra cranial GBM tumors were induced in 5-6 week old female athymic nude mice by stereotaxic inoculation of U87MG-luc2 cells that stably carry the luciferase gene. Seven to ten days post-inoculation, tumors were evaluated by bioluminescence using Xenogen IVIS in vivo imaging system (Caliper Life Sciences) and mice were evenly divided into treatment groups. Treatment was initiated on the day of randomization (day 0). Animals were injected intravenously (i.v.) via the tail vein with 5 mg/kg (per injection per mouse) of TMZ alone or TfRscFv-targeted TMZ cationic liposome complex (scL-TMZ). […] Mice were injected twice per week with each reagent for 5 weeks. Control animals (Vehicle) received Liposome only (no TMZ, no TfRscFv).
Assessment of in vivo efficacy: The in vivo response to treatment was evaluated based upon the changes in tumor growth, body weight change, and overall survival. Tumor growth was monitored by bioluminescence imaging (BLI) using Xenogen IVIS in vivo imaging system before, during, and after the treatments at the indicated date. […] The bioluminescence intensity of the brain tumors, a measure of tumor size/growth, was measured and compared between treatment groups. Half-way through treatment (after mice received 3 weeks of treatment with each reagent), all animals were scanned with magnetic resonance imaging (MRI) to evaluate the brain tumor. […] Tumor volume was calculated from the MRI scan and compared between treatment groups. Body weight change was monitored weekly. Overall survival was recorded and plotted by Kaplan-Meier method.
In a second experiment, different doses/number of injections per week of scL-TMZ, prepared as described herein, were compared. Groups of mice bearing U87MG-luc2 glioblastoma intracranial xenograft tumors were iv tail vein injected for 5 weeks with scL-TMZ at: 2.5 mg/kg one injection per week; 5 mg/kg one injection per week; or 5 mg/kg two injections per week and survival determined.

LN-18 cells = test: XTT sensitization of TMZ resistant cells by scL-p53; format: cell-based, human; conditions: XTT 72 h after TMZ addition
Method: (§1) However, as only a subset of brain tumor patients respond to TMZ it was more critical to assess the ability of scL-p53 to sensitize TMZ resistant tumors to this chemotherapeutic agent. Thus, to assess the ability of scL delivered wtp53 to sensitize TMZ resistant brain tumor cells to this first-line chemotherapeutic agent, human brain tumor derived LN-18 and T98G cells were treated with TMZ alone, or the combination of TMZ plus scL-p53 (FIG. 23). As a control, cells were also treated with the combination of TMZ and the scL delivery system carrying the same vector used to construct the pSCMVp53 plasmid, but without the p53 insert (scL-vec). The cells were plated in a 96-well plate and treated 24 hours later with scL-p53 or scL-vec. 24 hours post-transfection, the TMZ was added in increasing concentrations. […] As shown in FIG. 23 with LN-18 cells, after transfection with scL-p53 these TMZ resistant cells are now responding to even very low doses of TMZ. […] With the T98G cells (FIG. 23), although not as responsive as to TMZ as LN-18 after treatment with scL-p53, these highly resistant cells are also sensitized to the killing effects of this drug.

T98G cells = test: as above; format: cell-based, human; conditions: XTT 72 h after TMZ addition
Method: as §1

[2] = system: U87MG-Luc xenograft brain tumors; test: Intracranial tumor growth (BLI, MRI), scL-p53 plus TMZ; format: in vivo, nude mice; conditions: TMZ 5.0 mg/kg, scL-p53 30 ug DNA/mouse, i.v. 2x/week, 10 injections
Method: An experiment was performed to examine tumor growth inhibition induced by the sensitization of IC brain tumors to TMZ by systemic administration of scL-p53 prepared as described in U.S. Pat. No. 7,780,882. U87MG-Luc xenograft brain tumors were induced in nude mice by intracranially inoculating U87MG-luc cells. This cell line, obtained from Caliper Life Sciences, has been modified to stably express the Luciferase gene. 10 days post-inoculation, tumor-bearing animals were i.v. tail vein injected with TMZ alone (5.0 mg/kg/injection), scL-p53 alone (30 ug DNA/mouse/injection) or TMZ in combination with scL-p53. As a control, one group received PBS (vehicle). All i.v. injections were administered 2×/week to a total of 10 injections. To assess tumor response, bioluminescence imaging (BLI) was performed using IVIS® Imaging System's Xenogen. FIG. 24 is a comparison of in vivo anti-tumor efficacy of the various groups. Bioluminescence signals which correlate to tumor size are shown in a color map. Red color (at the top of the scale bar): the stronger signal, Violet color (at the bottom of the scale bar): the weaker signal. […] The horizontal bar indicates the duration of treatment (Last treatment=Day 24).
To confirm the bioluminescence findings, the mice were also imaged by MRI, without contrast agent, before and after the mice received 3 weeks of treatment. […]

[3] = system: U87MG-Luc xenograft brain tumors; test: Survival of mice with intracranial GBM tumors (Kaplan-Meier); format: in vivo, nude mice
Method: U87MG-Luc xenograft brain tumors were induced in nude mice as described above. 10 days post-inoculation, tumor-bearing animals were i.v. tail vein injected with TMZ alone (25.0 mg/kg/injection), scL-p53 alone (30 ug DNA/mouse/injection) (prepared as described in U.S. Pat. No. 7,780,882) or TMZ in combination with scL-p53. As a control, one group received PBS (vehicle). All i.v. injections were administered 2×/week to a total of 10 injections. The animals were monitored 2-3 times/week and euthanized when moribund. The gray bar in FIG. 27 indicates the duration of treatment.

intracranial T98G tumors = test: Survival of mice with TMZ resistant intracranial GBM tumors; format: in vivo, athymic nude mice; conditions: TMZ 100 mg/m^2 i.v. daily for 14 days; scL-p53 30 ug DNA twice weekly for 2 weeks
Method: Thus an experiment was performed to assess survival of mice bearing intracranial tumors derived from TMZ resistant human GBM cell line T98G. Athymic nude mice were intracranially inoculated with T98G human glioblastoma cell line. Ten days after the inoculation, animals were imaged by MRI and evenly divided into 3 groups. Treatment was started immediately after imaging. The animals were iv treated with 100 mg/m^2 of TMZ once a day for 14 consecutive days, iv administered scL-p53 (30 ug DNA/injection) (prepared as described in U.S. Pat. No. 7,780,882) twice weekly for 2 weeks, or the combination of both treatments. Survival was monitored. The number of mice surviving/group at day 14 is indicated for each group. […] In contrast, 4 of 5 mice that had received the combination therapy were still surviving.

[4] = 5 mg/kg i.v. twice per week for 5 weeks

Cn1nnc2c(C(N)=O)ncn2c1=O [TMZ, temozolomide]
long term survival (Kaplan-Meier) [1, 4]: extended the lifespan | time tumor growth was controlled (BLI) [1, 4]: ~2.5 weeks | tumor growth by MRI ([1]; 5 mg/kg i.v. twice per week, after 3 weeks (6 injections)): some tumor growth inhibition | dose of TMZ until which no significant cell death is observed (LN-18 cells): ~1000 µM | pIC50 (T98G cells): ~2.70 | IC tumor growth during treatment (BLI) [2]: some minimal effect | day by which all of the mice succumbed to their tumor ([3]; TMZ 25.0 mg/kg): ~155 days | Median Survival ([3]; TMZ 25.0 mg/kg, scL-p53 30 ug DNA/mouse, i.v. 2x/week, 10 injections): 112 days | Survival Prolongation (%) ([3]; ratio of the median survival of untreated GBM xenografts): 348% | mice surviving at day 14 (intracranial T98G tumors): a significant number of animals succumbed
